Source: patent publication US20230381275A1, “MUSCULAR FUNCTION IMPROVING AGENT FOR SKELETAL MUSCLE OF WHICH FUNCTION IS DEGRADED DUE TO AGING” (OSAKA UNIVERSITY, priority 2020, published 2023)

Tests used:
[1] = tested on: fibroblasts; conditions: Non-Patent Documents 5, 6, Patent Documents 1-4; cited from earlier work
[2] = tested on: aging-accelerated model mice (SAMP10); assay: Mean cross-sectional area of muscle fibers, HE staining, 40-week-old mice (Example 3); format: in vivo; conditions: 40-week-old SAMP10 mice; treadmill training plus SV peptide 20 ng/ml; vs PBS control; FIG. 3B
Method: In this example, we evaluated muscle fibers in aging-accelerated model mice after continuous administration of SV peptide.
Aging-accelerated model mice (SAMP10 21 weeks old) were trained on a treadmill (MK-680; Muromachi Kikai Co., Ltd.) (18 m/min×90 min) and subsequent SV peptide administration was performed according to the same schedule as in Example 1. After 36 weeks of age, training on the treadmill and subsequent SV peptide administration were conducted under the same conditions as at 35 weeks of age, and continued until the aging-accelerated model mice reached 40 weeks of age. In the control group, after training under the same conditions as the experimental group, PBS was injected into the bilateral lower limb muscles instead of SV peptide.
The gastrocnemius and soleus muscles of the lower limbs were then removed from 40-week-old aging-accelerated model mice, sections were prepared according to the standard method, and HE staining was performed.

[3] = tested on: animal models of injured skeletal muscle; conditions: local administration, Non-Patent Document 7, Patent Document 5; cited from earlier work
[4] = tested on: fibroblasts; conditions: see Patent Document 1; cited from earlier work
[5] = tested on: aging-accelerated model mice (SAMP10); assay: Number of collisions on treadmill retest 12, 24 or 72 hours after local injection (Example 2); format: in vivo; conditions: SAMP10 36 weeks old, SV peptide total 40 ng into bilateral lower limb muscles, vs PBS control, FIG. 2
Method: In this example, SV peptide was administered to aging-accelerated model mice, and the recovery effect of muscle function after a certain period of time by the administration was confirmed.
Treadmill running was performed using aging-accelerated model mice (SAMP10 36 weeks old) under the same conditions as the first basic training of 35-week-old mice in Example 1, and SV peptide (total 40 ng) was injected into the bilateral lower limb muscles immediately after treadmill running (experimental group).
SV peptide was administered at the same site and dose as in the 35-week-old mice of Example 1. The number of collisions was evaluated by retesting treadmill running (18 m/min×90 min) at 12, 24, or 72 hours after local injection. In the control group, after treadmill running as in the experimental group, PBS was injected into the bilateral leg muscles instead of SV peptide, and the number of collisions on the treadmill was measured 12, 24, or 72 hours after the injection.

[6] = tested on: aging-accelerated model mice; assay: Endurance evaluation test on treadmill (Example 5); format: in vivo; conditions: SV group
Method: (§1) In this example, the training schedule and SV peptide administration concentration were changed from Example 4, and exercise evaluation (endurance evaluation) was conducted in aging-accelerated model mice when SV peptide was continuously administered. In addition, the cross-sectional area of muscle fibers (gastrocnemius (type I, type IIa, type IIb), extensor digitorum longus, and tibialis anterior muscles) were evaluated in mice that continued training and SV peptide administration until 51 weeks of age.
(§2) Aging-accelerated model mice were trained on a treadmill (MK-680; Muromachi Kikai Co., Ltd.) (18 m/min×90 min) and subsequent SV peptide administration was performed according to the schedule in the following table. 30 weeks of age and thereafter, training was performed continuously from Monday to Friday of each week. SV peptide was added to PBS to adjust to a concentration of 1 μg/ml for an injection formulation and localized to the bilateral leg muscles of each mouse anesthetized by inhalation with sevoflurane immediately after training on Tuesday and Friday (SV group; twice weekly administration). Exercise evaluations were performed every other Friday.
Exercise evaluation was performed by endurance assessment, in which the belt speed on the treadmill was increased stepwise at regular intervals. The elapsed time and belt speed increase used for the endurance evaluation test were the same as in Example 4. In the PBS group as a control group, PBS was injected into the bilateral leg muscles instead of SV peptide after training on the treadmill in the same manner as in the SV group.
The results of the endurance evaluation test are shown in FIG. 7 as a graph showing the difference between the mean running distance on the reference date (30 weeks of age) and the mean running distance in each test.
The results of the endurance evaluation test are also shown in FIG. 8 as a graph showing the difference between the mean speed on the reference day and the mean speed on each test day. The mean speed for each group was calculated as the mean of the highest speeds reached by each mouse in each group (mean speeds were calculated in the same manner hereinafter).

[7] = tested on: aging-accelerated model mice; assay: Mean cross-sectional area of muscle fibers, HE staining, 51-week-old mice (Example 5); format: in vivo
Method: as §1, §2
The gastrocnemius, extensor digitorum longus, and tibialis anterior muscles of the lower limbs were removed from 51-week-old aging-accelerated model mice, and after sections were prepared according to the standard method, the cross-sectional area of muscle fibers was measured by HE staining. […] The mean cross-sectional area of muscle fibers was also measured for each type of gastrocnemius muscle fiber (type I, type IIa, and type IIb). The mean cross-sectional area of muscle fibers was the mean of more than 50 fibers of each muscle fiber type.

[8] = tested on: aging-accelerated model mice; assay: Endurance evaluation test on treadmill (Example 6); format: in vivo; conditions: SV group, SV peptide 2 μg/ml one dose every other week plus training
Method: In this example, the number of SV peptide doses and dosage in Example 4 was changed as shown in the following table, and exercise evaluation (endurance evaluation) was performed when SV peptide was continuously administered to aging-accelerated model mice. The conditions other than the number of SV peptide doses and dosage were the same as in Example 4.
Specifically, SV peptide was added to PBS to adjust to a concentration of 2 μg/ml for the injectable formulation, and localized to the bilateral lower limb muscles of each mouse anesthetized by inhalation with sevoflurane immediately after training on Friday every other week (even weeks) (SV group; one dose every other week).
The results of the endurance evaluation test are shown in FIG. 12 with a graph showing the mean running distance for the SV group (n=3) and the PBS group (n=4). A graph showing the difference between the mean running distance on the reference date (30 weeks old) and the mean running distance in each test is also shown in FIG. 13.

[9] = SV group vs PBS group, mean of more than 50 fibers, FIGS. 10 and 11
[10] = SV peptide 1 μg/ml plus training from 28 to 51 weeks, vs PBS group, FIG. 9

SVVYGLR [SV peptide, peptide consisting of 7 amino acids (SVVYGLR]
differentiation of fibroblasts to myofibroblasts [1]: promoting | mean cross-sectional area of fast muscle fibers (gastrocnemius muscle) [2]: significantly higher than in the control group | mean cross-sectional area of slow muscle fibers (soleus muscle) [2]: significantly higher than in the control group | diameter of regenerated muscle fibers [3]: significantly higher | muscle tissue regeneration [3]: promotes muscle tissue regeneration | type III collagen production-promoting effect / type III collagen secretion [4]: promoting | number of collisions during treadmill running ([5]; 12 hours after local injection): significantly reduced | number of collisions during treadmill running ([5]; 24 hours after local injection): significantly reduced | number of collisions during treadmill running ([5]; 72 hours after local injection): significantly reduced | decrease in the mean running distance during the test period ([6]; 1 μg/ml twice weekly plus training, relative to the PBS group, FIG. 7): able to suppress the decrease in the mean running distance | decrease in mean speed during the test period ([6]; 1 μg/ml twice weekly plus training, relative to the PBS group, FIG. 8): able to suppress the decrease in mean speed | mean speed (mean of highest speeds reached) relative to reference day ([6]; 1 μg/ml twice weekly plus training, test from 31 to 39 weeks of age, FIG. 8): increased continuously | mean running distance relative to the reference date (30 weeks of age) ([6]; SV peptide 1 μg/ml twice weekly plus training, tests at 31 to 41 weeks of age, FIG. 7): increased from the reference date | cross-sectional area of type I gastrocnemius muscle fibers [7, 9]: increased compared to the PBS group | cross-sectional area of type IIa gastrocnemius muscle fibers [7, 9]: increased compared to the PBS group | cross-sectional area of type IIb gastrocnemius muscle fibers [7, 9]: increased compared to the PBS group | mean cross-sectional area of muscle fibers, extensor digitorum longus muscle [7, 10]: significantly larger than that in the PBS group | mean cross-sectional area of muscle fibers, gastrocnemius muscle [7, 10]: significantly larger than that in the PBS group | mean cross-sectional area of muscle fibers, tibialis anterior muscle [7, 10]: significantly larger than that in the PBS group | mean running distance ([8]; after 49 weeks of age): able to maintain the same mean running distance as the 30-week-old group | mean running distance ([8]; from 31 to 48 weeks of age, FIGS. 12 and 13): increased significantly
